Experimental data taken from ChEMBL document CHEMBL5050844 (2019).

Key:
[1] = Induction of anti-CD3/CD28 antibodies-stimulated human T cell activation at 4 uM assessed fold increase in IL-2 secretion measured by ELISA assay; format: functional, T cell line
[2] = Induction of anti-CD3/CD28 antibodies-stimulated human T cell activation at 1 uM assessed fold increase in IL-2 secretion measured by ELISA assay; format: functional, T cell line
[3] = Induction of anti-CD3 antibodies-stimulated human T cell activation at 8 uM assessed fold increase in IL-2 secretion measured by ELISA assay; format: functional, T cell line; further: reference of the scale not given here
[4] = Induction of anti-CD3 antibodies-stimulated human T cell activation at 1 uM assessed fold increase in IL-2 secretion measured by ELISA assay; format: functional, T cell line; further: reference of the scale not given here
[5] = Induction of anti-CD3/CD28 antibodies-stimulated human T cell activation at 4 uM assessed fold increase in CD25 expression measured by ELISA assay; format: functional, T cell line
[6] = Induction of anti-CD3/CD28 antibodies-stimulated human T cell activation at 0.3 uM assessed fold increase in CD25 expression measured by ELISA assay; format: functional, T cell line
[7] = Induction of anti-CD3 antibodies-stimulated human T cell activation at 1 uM assessed fold increase in CD25 expression measured by ELISA assay; format: functional, T cell line; further: reference of the scale not given here
[8] = Induction of anti-CD3/CD28 antibodies-stimulated human CD4+ T cell activation at 10 uM assessed fold increase in cell proliferation measured by flow cytometry analysis; format: functional, T cell line
[9] = Induction of anti-CD3/CD28 antibodies-stimulated human CD4+ T cell activation at 1.11 uM assessed fold increase in cell proliferation measured by flow cytometry analysis; format: functional, T cell line
[10] = Induction of anti-CD3/CD28 antibodies-stimulated human CD8+ T cell activation at 10 uM assessed fold increase in CD69 expression measured by flow cytometry analysis; format: functional, T cell line
[11] = Induction of anti-CD3/CD28 antibodies-stimulated human CD8+ T cell activation at 1.11 uM assessed fold increase in CD69 expression measured by flow cytometry analysis; format: functional, T cell line
[12] = Induction of anti-CD3/CD28 antibodies-stimulated human CD8+ T cell activation at 10 uM assessed fold increase in cell proliferation measured by flow cytometry analysis; format: functional, T cell line
[13] = Induction of anti-CD3/CD28 antibodies-stimulated human CD8+ T cell activation at 1.11 uM assessed fold increase in cell proliferation measured by flow cytometry analysis; format: functional, T cell line
[14] = Induction of anti-CD3 antibodies-stimulated human CD4+ T cell activation at 10 uM assessed fold increase in CD69 expression measured by flow cytometry analysis; format: functional, T cell line; further: reference of the scale not given here
[15] = Induction of anti-CD3 antibodies-stimulated human CD4+ T cell activation at 1.11 uM assessed fold increase in CD69 expression measured by flow cytometry analysis; format: functional, T cell line; further: reference of the scale not given here
[16] = Induction of anti-CD3 antibodies-stimulated human CD8+ T cell activation at 10 uM assessed fold increase in CD69 expression measured by flow cytometry analysis; format: functional, T cell line; further: reference of the scale not given here
[17] = Induction of anti-CD3 antibodies-stimulated human CD8+ T cell activation at 1.11 uM assessed fold increase in CD69 expression measured by flow cytometry analysis; format: functional, T cell line; further: reference of the scale not given here
[18] = Induction of anti-CD3 antibodies-stimulated human CD8+ T cell activation at 10 uM assessed fold increase in cell proliferation measured by flow cytometry analysis; format: functional, T cell line; further: reference of the scale not given here
[19] = Induction of anti-CD3 antibodies-stimulated human CD8+ T cell activation at 1.11 uM assessed fold increase in cell proliferation measured by flow cytometry analysis; format: functional, T cell line; further: reference of the scale not given here
[20] = Induction of anti-CD3/CD28 antibodies-stimulated human T cell activation at 1.11 uM assessed fold increase in GM-CSF secretion measured by ELISA assay; format: functional, T cell line
[21] = Induction of anti-CD3 antibodies-stimulated human T cell activation at 10 uM assessed fold increase in GM-CSF secretion measured by ELISA assay; format: functional, T cell line; further: reference of the scale not given here
[22] = Induction of anti-CD3 antibodies-stimulated human T cell activation at 1.11 uM assessed fold increase in GM-CSF secretion measured by ELISA assay; format: functional, T cell line; further: reference of the scale not given here
[23] = Induction of anti-CD3/CD28 antibodies-stimulated human T cell activation at 10 uM assessed fold increase in TNF-alpha secretion measured by ELISA assay; format: functional, T cell line
[24] = Induction of anti-CD3/CD28 antibodies-stimulated human T cell activation at 1.11 uM assessed fold increase in TNF-alpha secretion measured by ELISA assay; format: functional, T cell line
[25] = Induction of anti-CD3/CD28 antibodies-stimulated human T cell activation at 1.11 uM assessed fold increase in IFN-gamma secretion measured by ELISA assay; format: functional, T cell line
[26] = Induction of anti-CD3 antibodies-stimulated human T cell activation at 10 uM assessed fold increase in IFN-gamma secretion measured by ELISA assay; format: functional, T cell line; further: reference of the scale not given here
[27] = Induction of anti-CD3 antibodies-stimulated human exhausted T cell activation assessed fold increase in IL-2 secretion measured by ELISA assay; format: functional, T cell line; further: reference of the scale not given here
[28] = Induction of anti-CD3 antibodies-stimulated human exhausted T cell activation assessed fold increase in GM-CSF secretion measured by ELISA assay; format: functional, T cell line; further: reference of the scale not given here
[29] = Induction of anti-CD3 antibodies-stimulated human exhausted CD4+ T cell activation assessed fold increase in CTLA4 expression measured by flow cytometry analysis; format: functional, T cell line; further: reference of the scale not given here
[30] = Induction of anti-CD3 antibodies-stimulated human exhausted CD8+ T cell activation assessed fold increase in CTLA4 expression measured by flow cytometry analysis; format: functional, T cell line; further: reference of the scale not given here
[31] = Induction of anti-CD3/CD28 antibodies-stimulated human anergic T cell activation at 1.11 uM assessed fold increase in IFN-gamma secretion measured by ELISA assay; format: functional, T cell line
[32] = Induction of anti-CD3/CD28 antibodies-stimulated human anergic T cell activation at 0.37 uM assessed fold increase in IFN-gamma secretion measured by ELISA assay; format: functional, T cell line
[33] = system: B cell; test: Induction of anti-IgM-stimulated human CD20+ B cell activation at 10 to 1000 uM assessed as increase in CD69 expression measured as mean fluorescence intensity AUC by flow cytometry analysis; format: functional, cell-based; details: dose 10-1000 µM
[34] = Induction of activation of human CD56+ CD3- NK cells co-cultured with human K562 cells in 1:1 ratio and assessed as increase in IFN-gamma secretion at 10 uM measured by ELISA assay; format: functional, Natural killer cell
[35] = Induction of activation of human CD56+ CD3- NK cells co-cultured with human K562 cells in 1:1 ratio and assessed as increase in IFN-gamma secretion at 2.5 uM measured by ELISA assay; format: functional, Natural killer cell
[36] = Induction of activation of human CD56+ CD3- NK cells co-cultured with human K562 cells in 1:1 ratio and assessed as increase in IFN-gamma secretion at 0.625 uM measured by ELISA assay; format: functional, Natural killer cell
[37] = Induction of activation of human CD56+ CD3- NK cells co-cultured with human K562 cells in 1:1 ratio and assessed as increase in TNF-alpha secretion at 2.5 uM measured by ELISA assay; format: functional, Natural killer cell
[38] = Induction of activation of human CD56+ CD3- NK cells co-cultured with human K562 cells in 1:1 ratio and assessed as increase in TNF-alpha secretion at 0.625 uM measured by ELISA assay; format: functional, Natural killer cell

Row | SMILES | fold change (FC) [2] | fold change (FC) [4] | fold change (FC) [6] | fold change (FC) [7] | fold change (FC) [8] | fold change (FC) [9] | fold change (FC) [10] | fold change (FC) [11] | fold change (FC) [12] | fold change (FC) [13] | fold change (FC) [14] | fold change (FC) [15] | fold change (FC) [16] | fold change (FC) [17] | fold change (FC) [18] | fold change (FC) [19] | fold change (FC) [27] | fold change (FC) [28] | fold change (FC) [29] | fold change (FC) [30] | other results
1 | Cn1cnnc1C(F)(F)[C@](C)(F)c1cccc(N2Cc3c(cc(C(=O)N4CC[C@H](O)C4)cc3C(F)(F)F)C2=O)c1 | 2.51 | 0.101 | 1.01 | 0.801 | >4 | 3.01 | 1.201 | <=1.2 | 3.01 | <=2 | >1.601 | 1.201 | 1.201 | <=1.2 | >4 | <=2 | 2.51 | <=1.4 | <=1.4 | <=1.4 | fold change (FC) [1]: >=7.5; fold change (FC) [3]: >=0.201; fold change (FC) [5]: 1.31; fold change (FC) [20]: 1.51; fold change (FC) [21]: 2.01; fold change (FC) [22]: <=1.5; fold change (FC) [23]: 2.01; fold change (FC) [24]: <=1.5; fold change (FC) [25]: <=2; fold change (FC) [26]: 2.01; fold change (FC) [31]: <=2.5; fold change (FC) [32]: <=2.5; AUC [33]: < 0.5; fold change (FC) [34]: <=1; fold change (FC) [35]: 1.01; fold change (FC) [36]: 1.01; fold change (FC) [37]: 1.01; fold change (FC) [38]: 1.01
2 | Cn1cnnc1CC1(c2cccc(N3Cc4c(cc(CN5CCC6(CC6)C5)cc4C(F)(F)F)C3=O)c2)COC1 | >=7.5 | >=0.201 | 1.31 | >=1.001 | >4 | >4 | 1.201 | 1.201 | >4 | >4 | >1.601 | >1.601 | 1.401 | 1.401 | >4 | >4 | 2.51 | 1.41 | >1.61 | >1.61 | fold change (FC) [20]: >4; fold change (FC) [21]: >4; fold change (FC) [22]: 2.01; fold change (FC) [23]: >4; fold change (FC) [24]: 2.01; fold change (FC) [25]: >4; fold change (FC) [26]: >4; fold change (FC) [31]: 2.51; fold change (FC) [32]: <=2.5; AUC [33]: > 1.51; fold change (FC) [34]: >=5; fold change (FC) [35]: >=5; fold change (FC) [36]: 2.01; fold change (FC) [37]: >=5; fold change (FC) [38]: 2.01
3 | COC1CN(Cc2cc3c(c(C(F)(F)F)c2)CN(c2cccc([C@@](C)(F)C(F)(F)c4nncn4C)c2)C3=O)C1 | 5 | 0.151 | 1.01 | >=1.001 | >4 | >4 | 1.201 | 1.201 | >4 | 3.01 | >1.601 | 1.401 | 1.401 | 1.201 | >4 | 3.01 | <=2.5 | >1.61 | >1.61 | >1.61 | fold change (FC) [1]: >=7.5; fold change (FC) [3]: >=0.201; fold change (FC) [5]: 1.31; fold change (FC) [20]: 2.01; fold change (FC) [21]: 2.01; fold change (FC) [22]: 1.51; fold change (FC) [23]: 2.01; fold change (FC) [24]: 1.51; fold change (FC) [25]: <=2; fold change (FC) [26]: 3.01; fold change (FC) [31]: 2.51; fold change (FC) [32]: <=2.5; fold change (FC) [34]: >=5; fold change (FC) [35]: >=5; fold change (FC) [36]: 2.01; fold change (FC) [37]: 2.01; fold change (FC) [38]: 1.01
4 | C[C@@H](Sc1nncn1C)c1cccc(NC(=O)c2cccc(C(F)(F)F)n2)c1 | 1.01 | 0.051 | 1.01 | <=0.6 | >4 | 3.01 | 1.201 | <=1.2 | >4 | 2.01 | 1.401 | >1.601 | 1.201 | 1.201 | >4 | 3.01 | <=2.5 | <=1.4 | <=1.4 | <=1.4 | fold change (FC) [1]: 1.01; fold change (FC) [3]: 0.051; fold change (FC) [5]: 1.01; fold change (FC) [31]: <=2.5; fold change (FC) [32]: <=2.5; AUC [33]: < 0.5; fold change (FC) [34]: 1.01; fold change (FC) [35]: 1.01; fold change (FC) [36]: <=1; fold change (FC) [37]: 1.01; fold change (FC) [38]: 1.01
